Assay [1] is filed under the species Homo sapiens. In words: (§1) Induction of lipogenesis in human myotubes at 10 uM after 4 days by scintillation counting analysis in presence of [1-14C]acetate relative to control. The assay is classed as functional.
The species entered for assay [2] is Homo sapiens. In words: Inhibition of tularic-induced lipogenesis in human myotubes at 10 uM after 4 days by scintillation counting analysis in presence of [1-14C]acetate relative to control. The assay is classed as functional.
Assay [3] addresses T1, Liver X receptor (Homo sapiens) (UniProt Q13133+P55055). In words: Antagonist activity at LXR in human myotubes assessed as downregulation of SCD1 expression at 10 uM after 4 days by qPCR analysis.
For assay [4], the species on record is Homo sapiens. In words: Induction of lipogenesis in human myotubes at 1 uM after 4 days by scintillation counting analysis in presence of [1-14C]acetate. The assay is classed as functional.
Assay [5] deals with T1, Liver X receptor (Homo sapiens). In words: Agonist activity at LXR in human myotubes assessed as upregulation of SCD1 expression at 10 uM after 4 days by qPCR analysis.
The nature of assay [6]: as §1. The assay is classed as functional.

Activity calls are given as the source filed them. The rule behind the calls is not given here.

Take `CC(C)CC[C@H](O)[C@@H](C)[C@H]1CC[C@H]2[C@@H]3CC=C4C[C@@H](O)CC[C@]4(C)[C@H]3CC[C@]12C`: the result in assay [1] was inactive. The inhibition result in assay [2] is “Active”. Besides, the result in assay [3] was Active.

For `O=S(=O)(c1ccccc1)N(CC(F)(F)F)c1ccc(C(O)(C(F)(F)F)C(F)(F)F)cc1`, the outcome in assay [4] was Active.

Consider `CC(C)CC[C@H](O)[C@@H](C)COCc1ccc(S(=O)(=O)N2CCCC2)cc1`, for which the outcome in assay [5] was Active. Moreover, the “fold change (FC)” value in assay [6] was found to be 2.
